Data set [1] relates to human bone marrow mononuclear cells (HBMNC). Nature of the data set: BrdU cell cycle analysis and live cell count in normal cells. Format: cell-based. How it is done:
(§1) The effect KIF18A inhibitor treatment has on proliferation of normal somatic cells (e.g., not neoplastic cells) was tested by assaying proliferation of human bone marrow mononuclear cells (HBMNCs), primary human foreskin fibroblast cells (hFSF) and human mammary epithelial cells via a 5-bromo-2′-deoxyuridine (BrdU) incorporation assay in which BrdU, an analog of the nucleoside thymidine, is used to identify proliferating cells (Payton et. al., Molecular Cancer Therapeutics, 17(12):2575-85 (2018)). Cells were analyzed on BD LSRFortessa flow cytometer using BD FACSDiva software (BD Biosciences), and post-acquisition data analysis was performed using FSC-Express software (De Novo). The percentage of BrdU positive gated events on the stacked DNA content histograms were reported.
To further examine the effects of KIF18A inhibitor treatment on HBMNC, two normal donors were assessed using the BrdU coupled cell cycle assay and cell count assay (96 hours) was. […] In particular, the amount of BrdU-stained proliferating cells treated with Ispinesib, paclitaxel, or a CDK 4/6 inhibitor (palbociclib) was far less than the amount of vehicle control-treated BrdU-stained cells. […] KIF18A inhibitor treatment was also analyzed for impact on live cell count. After 96 hours, live cells were counted by Vi-CELL XR Cell Viability Analyzer (Beckman Coulter).
To investigate whether KIF18A inhibitors could circumvent this normal cell toxicity barrier, we examined the effects of Compounds C9 and C11 on a panel of cycling normal somatic cell types. First, we treated human bone marrow mononuclear cells (HBMNC) from two normal donors with DMSO, Compound C9 and C11 at 1 μM, ispinesib at 0.05 μM, paclitaxel at 0.05 μM, or palbociclib at 1 μM for 48 h (cell cycle) or 96 h (cell growth).
BrdU and cell cycle analysis. Human bone marrow mononuclear cells (HBMNCs) from two normal donors (#37612, #37534) were cultured for 8 days in defined media as previously described (Payton et al 2018). HBMNCs were seeded in 24-well plate at 1.2×10^6 cells per well in duplicate plates. Cells were treated with DMSO, Compound C9 (1 μM), Compound C11 (1 μM), ispinesib (0.05 μM), paclitaxel ([…]), or palbociclib (1 μM). Cells were collected at 48 h (cell cycle) and 96 h (cell growth). The first set of plates were pulsed with BrdU for 2 h and processing for BrdU cell cycle analysis as previously described (Payton et al 2018). Cells were analyzed on BD LSRFortessa flow cytometer running BD FACSDiva software and post-acquisition data analysis was performed using FSC-Express software. Data was reported for the percentage of BrdU and subG1 gated populations. The second set of plates were collected, and cells counted using Vi-CELL XR Cell Viability Analyzer (Beckman Coulter).

For data set [2], the system named is OVCAR-8 NCI/ADR-RES cells. As to the kind of experiment: Nuclear count assay in multidrug resistant cells, with or without P-gp inhibitor. Format: cell-based, human. The conditions noted are these: 4-day NCA; for EC50: Homo sapiens, 96 h, read-out: EC50 (Count POC). On the procedure:
Compound was added to the cells with a final volume of 200 μL in complete media containing 0.5% DMSO.
The plates were sealed and incubated for 1 hour at room temperature in the dark. Cells were stored at 4° C. in the dark until data acquisition. […] The Total Valid Object Count was represented as a Count POC (Percentage of DMSO Control) using the following formula:
Briefly, OVCAR-8 cells were seeded in duplicate in a Corning 96-well Flat Clear Bottom Black Polystyrene plates (Corning, N.Y.) in 100 μL of appropriate complete media at the appropriate density and grown for 24 hours. […] After 4 days (96 hours) of treatment, the cells were fixed by removing 100 μL of complete media from each well and replacing it with 100 μL of 2×formaldehyde (final 4%) and incubating the plates for 15 minutes at room temperature. […] The plates were sealed and incubated for 1 hour at room temperature in the dark. Cells were stored at 4° C. in the dark until data acquisition. […] The Total Valid Object Count was represented as a Count POC (Percentage of DMSO Control) using the following formula:
Count POC=(Total Valid Object Count in treated well)[…](Total Valid Object Count in DMSO treated wells)×100
Compound concentration and Count POC values were plotted using GraphPad Prism software (V7.0.4) and curve-fitting was performed with 4-parameter equation (variable slope). The concentration-response curves and standard deviation represent two independent experiments run in duplicate.

Data set [3] addresses T1, Recombinant human KIF18A (1-467 His-tagged) protein (Homo sapiens, UniProt Q8NI77).
T1 construct: Recombinant human KIF18A (1-467 His-tagged) protein; His; made in house
As to the kind of experiment: KIF18A Enzyme Assay (microtubule-stimulated ATPase activity, ADP-Glo). Format: biochemical. The conditions noted are these: 30 nM KIF18A, 75 μM ATP. How it is done:
KIF18A Enzyme Assay: Microtubule-stimulated ATPase activity assay was used to measure KIF18A enzyme activity after treatment with compound. Compounds were 2-fold serially diluted in DMSO (Sigma Inc) over 22-point concentration range. […] The assay measures ADP formed from the ATPase reaction.
Concentration-response curve-fitting and IC50 determination was performed using Genedata Screener Software (Standard 15.0.1, Genedata Inc) with a four-parameter logistic regression fit model.
(In general: ADP-Glo first removes unused ATP, then detects ADP through luciferase.)

Data set [4] has as its system human foreskin fibroblast (hFSF) cells. Nature of the data set: BrdU incorporation assay in normal cells. Format: cell-based. Particulars: 48 hours. On the procedure:
as §1

Data set [5] deals with human mammary epithelial cells (HMEC). Nature of the data set: BrdU incorporation assay in normal cells. Format: cell-based. The conditions noted are these: 48 hours. On the procedure: as §1
(Dividing cells build labelled thymidine or BrdU into new DNA.)

Like-named read-outs stand apart in the source and are kept apart here. Bounds are passed on as bounds.

Consider eight compounds from patent US20230151432A1, “KIF18A INHIBITORS FOR TREATMENT OF NEOPLASTIC DISEASES” (AMGEN INC., priority 2020, published 2023).

T1 sequence (Q8NI77 1-467): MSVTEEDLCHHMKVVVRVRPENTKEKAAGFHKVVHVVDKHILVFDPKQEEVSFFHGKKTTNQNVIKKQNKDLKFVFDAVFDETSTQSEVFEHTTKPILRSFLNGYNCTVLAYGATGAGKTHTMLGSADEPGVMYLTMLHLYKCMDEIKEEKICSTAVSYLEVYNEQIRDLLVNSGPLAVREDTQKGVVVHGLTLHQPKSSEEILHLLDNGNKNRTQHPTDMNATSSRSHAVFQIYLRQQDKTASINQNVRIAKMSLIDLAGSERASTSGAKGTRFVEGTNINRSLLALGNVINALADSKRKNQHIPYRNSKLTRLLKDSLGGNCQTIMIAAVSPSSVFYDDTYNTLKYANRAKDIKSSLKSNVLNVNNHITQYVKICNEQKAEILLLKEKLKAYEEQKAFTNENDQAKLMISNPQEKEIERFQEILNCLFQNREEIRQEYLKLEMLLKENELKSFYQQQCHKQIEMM
T1 sequence (P02550 whole entry partner): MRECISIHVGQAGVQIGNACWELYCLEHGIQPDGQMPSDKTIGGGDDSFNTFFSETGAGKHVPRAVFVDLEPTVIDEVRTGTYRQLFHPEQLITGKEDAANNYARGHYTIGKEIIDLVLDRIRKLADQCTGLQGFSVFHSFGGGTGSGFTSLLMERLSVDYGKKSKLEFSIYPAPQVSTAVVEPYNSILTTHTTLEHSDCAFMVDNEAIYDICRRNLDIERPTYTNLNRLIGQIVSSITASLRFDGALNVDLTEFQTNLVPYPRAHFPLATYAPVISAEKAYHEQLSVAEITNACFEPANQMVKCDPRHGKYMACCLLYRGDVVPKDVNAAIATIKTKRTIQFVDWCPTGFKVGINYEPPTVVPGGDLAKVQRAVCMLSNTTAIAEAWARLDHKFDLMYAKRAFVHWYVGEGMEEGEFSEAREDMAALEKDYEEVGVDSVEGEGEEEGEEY
T1 sequence (P02554 whole entry partner): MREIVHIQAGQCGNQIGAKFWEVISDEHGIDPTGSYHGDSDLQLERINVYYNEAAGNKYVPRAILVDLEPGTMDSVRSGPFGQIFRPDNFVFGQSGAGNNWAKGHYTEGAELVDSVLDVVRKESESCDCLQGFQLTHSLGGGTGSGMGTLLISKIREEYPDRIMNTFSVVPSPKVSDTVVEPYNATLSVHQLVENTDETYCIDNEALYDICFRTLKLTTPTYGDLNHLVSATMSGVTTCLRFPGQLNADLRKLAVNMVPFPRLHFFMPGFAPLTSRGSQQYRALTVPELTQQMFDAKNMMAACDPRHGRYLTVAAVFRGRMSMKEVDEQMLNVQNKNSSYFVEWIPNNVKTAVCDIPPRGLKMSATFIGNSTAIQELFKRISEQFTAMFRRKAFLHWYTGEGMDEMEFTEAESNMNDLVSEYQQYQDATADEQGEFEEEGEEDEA

The term EC50 denotes the concentration needed to bring the measured effect to its halfway point. Regarding `CC(=O)O[C@H]1C(=O)[C@@]2(C)[C@H]([C@H](OC(=O)c3ccccc3)[C@]3(O)C[C@H](OC(=O)[C@H](O)[C@@H](NC(=O)c4ccccc4)c4ccccc4)C(C)=C1C3(C)C)[C@]1(OC(C)=O)CO[C@@H]1C[C@@H]2O` [Paclitaxel], the “live cell count relative to vehicle control” value in data set [1] is reported as “lower cell count”. In addition, in data set [2] (GF120918 1 μM), the “fold change in potency in the presence vs in the absence of the P-gp inhibitor” value is “greater than 500 fold”. Moreover, the EC50 is over 1 µM in data set [2] (absence of the P-gp inhibitor) and 0.0017 µM in data set [2] (presence of P-gp inhibitor GF120918 (1 μM)).

By IC50 is commonly meant the concentration that inhibits the measured activity by half. Take `Cc1cc(NC(=O)c2ccc(S(=N)(=O)C3CC3)cc2N2CCC3(CC2)CC3)nc(N2CCC(F)(F)CC2)n1` (single isomer, unassigned) [Compound C2, 2-(6-azaspiro[2.5]octan-6-yl)-4-(S-cyclopropylsulfonimidoyl)-N-(2-(4,4-difluoro-1-piperidinyl)-6-methyl-4-pyrimidinyl)benzamide]: in data set [3], the IC50 is 0.057 µM.

With `CC(C)(C)NS(=O)(=O)c1cccc(NC(=O)c2ccc(NC(C)(C)CO)nc2N2CCC3(CC2)CC3)c1` [Compound C10, N-(3-(N-(tert-Butyl)sulfamoyl)phenyl)-6-((1-hydroxy-2-methylpropan-2-yl)amino)-2-(6-azaspiro[2.5]octan-6-yl)nicotinamide], the IC50 in data set [3] was 0.07 µM. Same read-out and setting: next, `Cc1cc(NC(=O)c2ccc(NS(=O)(=O)[C@H](C)CO)cc2N2CCC3(CC2)CC3)nc(N2CCC(F)(F)CC2)n1` (single isomer, unassigned) [Compound C5]: 0.062 µM; `Cc1cc(NC(=O)c2ccc([S@](=N)(=O)C3CC3)cc2N2CCC3(CC2)CC3)nc(N2CCC(F)(F)CC2)n1` (single isomer, unassigned) [Compound C1, 2-(6-Azaspiro[2.5]octan-6-yl)-4-(R-cyclopropylsulfonimidoyl)-N-(2-(4,4-difluoro-1-piperidinyl)-6-methyl-4-pyrimidinyl)benzamide]: 0.064 µM. The same measure, in the same setting: next, `CC(C)(C)NS(=O)(=O)c1cccc(NC(=O)c2ccc(S(=O)(=O)C3(C)COC3)cc2N2CCC3(CC2)CC3)c1` [Compound C8, N-(3-(N-(tert-Butyl)sulfamoyl)phenyl)-4-((3-methyloxetan-3-yl)sulfonyl)-2-(6-azaspiro[2.5]octan-6-yl)benzamide]: 0.061 µM; `Cc1cc(NC(=O)c2ccc(NS(=O)(=O)[C@@H](C)CO)cc2N2CCC3(CC2)CC3)nc(N2CCC(F)(F)CC2)n1` (single isomer, unassigned) [Compound C6]: 0.07 µM. With `CC(=O)c1c(C)c2cnc(Nc3ccc(N4CCNCC4)cn3)nc2n(C2CCCC2)c1=O` [Palbociclib], in data set [1], the “live cell count relative to vehicle control” value was “lower cell count”. The “BrdU incorporation relative to DMSO treated cells” value in data set [4] and in data set [5] was “decrease in BrdU incorporation” in each case.
